Bounds are passed on as bounds.

For this assay, the system named is Tacaribe virus (TRVL 11573). Put plainly: microbe, parasite or virus in culture. The format is cell-based. As to conditions: Mammarenavirus tacaribeense, Vero, read-out: Tacaribe EC50.
Take `Cc1ccc(S(=O)(=O)NNC(=O)N(C)C(C)(C(F)(F)F)C(F)(F)F)cc1` [Example 46, N-2-(1,1,1,3,3,3-Hexafluoro-2-methylpropyl)-2-[(4-methylphenyl)sulfonyl]hydrazine-1-methylcarboxamide]: the EC50 was over 5000 nM.
For the compound `CC(NC(=O)NNS(=O)(=O)c1ccc(OC(F)(F)F)cc1)(C(F)(F)F)C(F)(F)F` [Example 15, N-2-(1,1,1,3,3,3-Hexafluoro-2-methylpropyl)-2-[(4-trifluoromethoxyphenyl)sulfonyl] hydrazine-1-carboxamide], the EC50 was 500 to 1000 nM.
Consider `Cc1ccccc1S(=O)(=O)NNC(=O)NC(C)(C(F)(F)F)C(F)(F)F` [Example 18, N-2-(1,1,1,3,3,3-Hexafluoro-2-methylpropyl)-2-[(2-methoxyphenyl)sulfonyl]hydrazine-1-carboxamide], for which the 50% effective concentration (EC50) was in the range of 500 to 1000 nM.
With `CC(NC(=O)Nc1ccc(S(N)(=O)=O)cc1)(C(F)(F)F)C(F)(F)F` [Example 87, 4-[3-(1,1-Bis-trifluoromethylethyl)-ureido]benzenesulfonamide], the EC50 was over 5000 nM.
For `CC(NC(=O)NNS(=O)(=O)c1ccccc1)(C(F)(F)F)C(F)(F)F` [Example 30, N-2-(1,1,1,3,3,3-Hexafluoro-2-methylpropyl)-2-[phenylsulfonyl]hydrazine-1-carboxamide], the EC50 was in the range of 1000 to 5000 nM.
The value for `CC(NC(=O)Nc1c(Br)cccc1Br)(C(F)(F)F)C(F)(F)F` [Example 88, 1-(2,6-Dibromophenyl)-3-(2,2,2-trifluoro-1-methyl-1-trifluoromethylethyl)-urea] was over 5000 nM; that for `COc1ccc(OC)c(S(=O)(=O)NNC(=O)NC(C)(C(F)(F)F)C(F)(F)F)c1` [Example 7, N-2-(1,1,1,3,3,3-Hexafluoro-2 methylpropyl)-2-[(3,6-dimethoxyphenyl)sulfonyl] hydrazine-1-carboxamide] was under 500 nM; that for `CC(NC(=O)NNS(=O)(=O)c1ccc(Br)cc1)(C(F)(F)F)C(F)(F)F` [Example 10, N-2-(1,1,1,3,3,3-Hexafluoro-2-methylpropyl)-2-[(4-bromophenyl)sulfonyl]hydrazine-1-carboxamide] was under 500 nM.
The value for `CC(NC(=O)NNS(=O)(=O)c1ccccc1OC(F)(F)F)(C(F)(F)F)C(F)(F)F` [Example 28, N-2-(1,1,1,3,3,3-Hexafluoro-2-methylpropyl)-2-[(2-trifluoromethoxyphenyl)sulfonyl] hydrazine-1-carboxamide] was 1000 to 5000 nM; that for `CC(NC(=O)NNS(=O)(=O)c1ccc(Cl)cc1Cl)(C(F)(F)F)C(F)(F)F` [Example 29, N-2-(1,1,1,3,3,3-Hexafluoro-2-methylpropyl)-2-[(2,4-dichlorophenyl)sulfonyl]hydrazine-1-carboxamide] was 1000 to 5000 nM; that for `CC(NC(=O)NNS(=O)(=O)c1ccc(C(F)(F)F)cc1)(C(F)(F)F)C(F)(F)F` [Example 23, N-2-(1,1,1,3,3,3-Hexafluoro-2-methylpropyl)-2-[(4-trifluoromethylphenyl)sulfonyl] hydrazine-1-carboxamide] was 500 to 1000 nM.
Consider `CC(NC(=O)Nc1ccc(Br)cc1Br)(C(F)(F)F)C(F)(F)F` [Example 93, 1-(2,4-Dibromophenyl)-3-(2,2,2-trifluoro-1-methyl-1-trifluoromethylethyl)-urea], for which the EC50 was over 5000 nM.
In the case of `CC(NC(=O)NNS(=O)(=O)c1cccc2c1OCCO2)(C(F)(F)F)C(F)(F)F` [Example 34, N-2-(1,1,1,3,3,3-Hexafluoro-2-methylpropyl)-2-[5-(2,3-dihydrobenzo[1,4]dioxinyl)sulfonyl]hydrazine-1-carboxamide], the EC50 was 1000 to 5000 nM.
The value for `CC(NC(=O)NNS(=O)(=O)c1cc(F)ccc1F)(C(F)(F)F)C(F)(F)F` [Example 42, N-2-(1,1,1,3,3,3-Hexafluoro-2-methylpropyl)-2-[(2,5-difluorophenyl)sulfonyl]hydrazine-1-carboxamide] was 1000 to 5000 nM; that for `CC(NC(=O)NNS(=O)(=O)c1c(Cl)cccc1Cl)(C(F)(F)F)C(F)(F)F` [Example 44, N-2-(1,1,1,3,3,3-Hexafluoro-2-methylpropyl)-2-[(2,6-dichlorophenyl)sulfonyl]hydrazine-1-carboxamide] was 1000 to 5000 nM.
To `CC(NC(=O)N1CCCCC1)(C(F)(F)F)C(F)(F)F` [Example 54, 1-Piperidino-1-(2,2,2-trifluoro-1-methyl-1-trifluoromethylethyl)-carboxamide] belongs 500 to 1000 nM; to `CC(NC(=O)N1CCOCC1)(C(F)(F)F)C(F)(F)F` [Example 52, 4-Morpholino-1-(2,2,2-trifluoro-1-methyl-1-trifluoromethylethyl)-carboxamide], under 500 nM.
To `CC(NC(=O)Nc1cccc(F)c1)(C(F)(F)F)C(F)(F)F` [Example 80, 1-(3-fluorophenyl)-3-(2,2,2-trifluoro-1-methyl-1-trifluoromethylethyl)-urea] belongs 1000 to 5000 nM.
Regarding `CC(NC(=O)Nc1ccc2ccccc2c1)(C(F)(F)F)C(F)(F)F` [Example 71, 1-Naphthalen-2-yl-3-(2,2,2-trifluoro-1-methyl-1-trifluoromethylethyl)-urea], the EC50 lay in the range of 1000 to 5000 nM.
The value for `CC(NC(=O)Nc1cccc(C(F)(F)F)c1)(C(F)(F)F)C(F)(F)F` [Example 65, 1-(3-Trifluoromethylphenyl)-3-(2,2,2-trifluoro-1-methyl-1-trifluoromethylethyl)-urea] was 1000 to 5000 nM; that for `CC(NC(=O)Nc1ccccc1C#N)(C(F)(F)F)C(F)(F)F` [Example 82, 1-(2-Cyanophenyl)-3-(2,2,2-trifluoro-1-methyl-1-trifluoromethylethyl)-urea] was 1000 to 5000 nM.
As for `CC(NC(=O)Nc1ccc(C(=O)O)cc1OC(F)(F)F)(C(F)(F)F)C(F)(F)F` [Example 74, 3-Trifluormethoxy-4-[3-(1,1-bis-trifluoromethylethyl)-ureido]benzoic acid], the concentration giving a half-maximal response (EC50) was in the range of 1000 to 5000 nM.
The value for `CN(C)c1cccc2c(S(=O)(=O)NNC(=O)NC(C)(C(F)(F)F)C(F)(F)F)cccc12` [Example 4, N-2-(1,1,1,3,3,3-Hexafluoro-2-methylpropyl)-2-[5-(1-dimethylamino-naphthyl)sulfonyl]hydrazine-1-carboxamide] was under 500 nM; that for `CC(NC(=O)NNS(=O)(=O)c1ccc(F)cc1)(C(F)(F)F)C(F)(F)F` [Example 16, N-2-(1,1,1,3,3,3-Hexafluoro-2-methylpropyl)-2-[(4-fluoro-phenyl)sulfonyl]hydrazine-1-carboxamide] was 500 to 1000 nM; that for `CC(NC(=O)Nc1ccc(Cl)cc1)(C(F)(F)F)C(F)(F)F` [Example 85, 1-(4-Chlorophenyl)-3-(2,2,2-trifluoro-1-methyl-1-trifluoromethylethyl)-urea] was over 5000 nM.
With `CC(NC(=O)NNS(=O)(=O)c1ccccc1C(F)(F)F)(C(F)(F)F)C(F)(F)F` [Example 24, N-2-(1,1,1,3,3,3-Hexafluoro-2-methylpropyl)-2-[(2-trifluoromethylphenyl)sulfonyl] hydrazine-1-carboxamide], the concentration giving a half-maximal response (EC50) lay in the range of 1000 to 5000 nM.
Regarding `CC(NC(=O)Nc1ccc(Br)cc1)(C(F)(F)F)C(F)(F)F` [Example 81, 1-(4-Bromophenyl)-3-(2,2,2-trifluoro-1-methyl-1-trifluoromethylethyl)-urea], the EC50 fell in the range of 1000 to 5000 nM.
To `CC(NC(=O)NNS(=O)(=O)c1cccc(C#N)c1)(C(F)(F)F)C(F)(F)F` [Example 32, N-2-(1,1,1,3,3,3-Hexafluoro-2-methylpropyl)-2-[(3-cyanophenyl)sulfonyl]hydrazine-1-carboxamide] belongs 1000 to 5000 nM.
The value for `CN1CCN(C(=O)NC(C)(C(F)(F)F)C(F)(F)F)CC1` [Example 57, 4-Methylpiperazine-1-(2,2,2 trifluoro-1-methyl-1-trifluoromethylethyl)-carboxamide] was 1000 to 5000 nM.
Take `CC(NC(=O)Nc1ccc(F)cc1)(C(F)(F)F)C(F)(F)F` [Example 92, 1-(4-Fluorophenyl)-3-(2,2,2-trifluoro-1-methyl-1-trifluoromethylethyl)-urea]: the EC50 was over 5000 nM.
The value for `CC(NC(=O)Nc1ccccc1-c1ccccc1)(C(F)(F)F)C(F)(F)F` [Example 61] was 1000 to 5000 nM; that for `CC(NC(=O)NNS(=O)(=O)c1cccc(OC(F)F)c1)(C(F)(F)F)C(F)(F)F` [Example 31, N-2-(1,1,1,3,3,3-Hexafluoro-2-methylpropyl)-2-[(3-difluoromethoxyphenyl)sulfonyl] hydrazine-1-carboxamide] was 1000 to 5000 nM; that for `COc1ccc(S(=O)(=O)NNC(=O)NC(C)(C(F)(F)F)C(F)(F)F)c(OC)c1` [Example 20, N-2-(1,1,1,3,3,3-Hexafluoro-2-methylpropyl)-2-[(2,4-dimethoxyphenyl)sulfonyl] hydrazine-1-carboxamide] was 500 to 1000 nM.
In the case of `CC(NC(=O)Nc1c(F)cccc1Cl)(C(F)(F)F)C(F)(F)F` [Example 64, 1-(2-Chloro-6-fluorophenyl)-3-(2,2,2-trifluoro-1-methyl-1-trifluoromethylethyl)-urea], the concentration for a half-maximal effect (EC50) lay within 1000 to 5000 nM.
As for `COc1cccc(OC)c1NC(=O)NC(C)(C(F)(F)F)C(F)(F)F` [Example 73, l-(2,6-Dimethoxyphenyl)-3-(2,2,2-trifluoro-1-methyl-1-trifluoromethylethyl)-urea], the EC50 lay within 1000 to 5000 nM.
Consider `CC(NC(=O)NNS(=O)(=O)c1cccc(F)c1)(C(F)(F)F)C(F)(F)F` [Example 36, N-2-(1,1,1,3,3,3-Hexafluoro-2-methylpropyl)-2-[(3-fluorophenyl)sulfonyl]hydrazine-1-carboxamide], for which the EC50 is 1000 to 5000 nM.
To `CC(NC(=O)Nc1cccc2ccccc12)(C(F)(F)F)C(F)(F)F` [Example 58, 1-Naphthalen-1-yl-3-(2,2,2-trifluoro-1-methyl-1-trifluoromethylethyl)-urea] belongs 1000 to 5000 nM; to `Cc1cccc(NC(=O)NC(C)(C(F)(F)F)C(F)(F)F)c1` [Example 86, 1-(3-Methylphenyl)-3-(2,2,2-trifluoro-1-methyl-1-trifluoromethylethyl)-urea], over 5000 nM.
For `Cc1ccccc1NC(=O)NC(C)(C(F)(F)F)C(F)(F)F` [Example 89, 1-(2-Methylphenyl)-3-(2,2,2-trifluoro-1-methyl-1-trifluoromethylethyl)-urea], the EC50 was over 5000 nM.

As a reminder, the EC50 is the concentration that produces a half-maximal response.
